Laboratory results published in the NIST ThermoML archive (doi:10.1016/j.jct.2019.05.002).
Numbers after ± are expanded uncertainties.

Key:
[1] = 100 kPa, Liquid; for speed of sound: Frequency=3 MHz, Single path-length method; for mass density: Vibrating tube method
[2] = xn = mol fraction of the nth substance listed; settings: 100 kPa, Liquid, x1 = 1; for speed of sound: Frequency=3 MHz, Single path-length method; for mass density: Vibrating tube method

Row | SMILES | speed of sound ([1]; 298.15 K) | mass density ([1]; 298.15 K) | speed of sound ([1]; 303.15 K) | mass density ([1]; 303.15 K) | speed of sound ([1]; 308.15 K) | mass density ([1]; 308.15 K) | speed of sound ([1]; 313.15 K) | mass density ([1]; 313.15 K) | speed of sound ([1]; 318.15 K) | mass density ([1]; 318.15 K) | speed of sound ([1]; 323.15 K) | mass density ([1]; 323.15 K) | speed of sound ([2]; 298.15 K) | mass density ([2]; 298.15 K) | speed of sound ([2]; 303.15 K) | mass density ([2]; 303.15 K) | speed of sound ([2]; 308.15 K) | mass density ([2]; 308.15 K) | speed of sound ([2]; 313.15 K) | mass density ([2]; 313.15 K) | further results
1 | CCCC(=O)OCC [ethyl butanoate] | 1171.8 ± 1 m/s | 874.31 ± 2 kg/m3 | 1151.1 ± 1 m/s | 868.85 ± 2 kg/m3 | 1130.2 ± 1 m/s | 863.4 ± 2 kg/m3 | 1109 ± 1 m/s | 857.94 ± 2 kg/m3 | 1088 ± 1 m/s | 852.49 ± 2 kg/m3 | 1067.1 ± 1 m/s | 847.03 ± 2 kg/m3 |  |  |  |  |  |  |  |  | 
2 | OCCCCO [1,4-butanediol] | 1601.9 ± 1.1 m/s | 1012.8 ± 2 kg/m3 | 1590.3 ± 1.1 m/s | 1009.77 ± 2 kg/m3 | 1578.6 ± 1.1 m/s | 1006.74 ± 2 kg/m3 | 1567 ± 1.1 m/s | 1003.7 ± 2 kg/m3 | 1555.3 ± 1.1 m/s | 1000.67 ± 2 kg/m3 | 1543.7 ± 1.1 m/s | 997.63 ± 2 kg/m3 |  |  |  |  |  |  |  |  | 
3 | CCCC(=O)OCC [ethyl butanoate] + OCCCCO |  |  |  |  |  |  |  |  |  |  |  |  | 1171.8 ± 1 m/s | 874.31 ± 2 kg/m3 | 1151.1 ± 1 m/s | 868.85 ± 2 kg/m3 | 1130.2 ± 1 m/s | 863.4 ± 2 kg/m3 | 1109 ± 1 m/s | 857.94 ± 2 kg/m3 | speed of sound ([2]; 318.15 K): 1088 ± 1 m/s; mass density ([2]; 318.15 K): 852.49 ± 2 kg/m3; speed of sound ([2]; 323.15 K): 1067.1 ± 1 m/s; mass density ([2]; 323.15 K): 847.03 ± 2 kg/m3
4 | CC(O)CCO (centres undefined) [1,3-butanediol] | 1527.9 ± 1.4 m/s | 1001.87 ± 2 kg/m3 | 1514 ± 1.4 m/s | 998.41 ± 2 kg/m3 | 1500.1 ± 1.4 m/s | 994.94 ± 2 kg/m3 | 1486.2 ± 1.4 m/s | 991.49 ± 2 kg/m3 | 1472.3 ± 1.4 m/s | 988.02 ± 2 kg/m3 | 1458.4 ± 1.4 m/s | 984.56 ± 2 kg/m3 |  |  |  |  |  |  |  |  | 
5 | CCC(O)CO (centres undefined) [1,2-butanediol] | 1452.5 ± 1.4 m/s | 998.56 ± 2 kg/m3 | 1437.9 ± 1.4 m/s | 994.75 ± 2 kg/m3 | 1423.3 ± 1.4 m/s | 990.92 ± 2 kg/m3 | 1408.7 ± 1.4 m/s | 987.11 ± 2 kg/m3 | 1394.1 ± 1.4 m/s | 983.28 ± 2 kg/m3 | 1379.5 ± 1.4 m/s | 979.46 ± 2 kg/m3 |  |  |  |  |  |  |  |  | 
6 | CCCC(=O)OCC [ethyl butanoate] + CCC(O)CO |  |  |  |  |  |  |  |  |  |  |  |  | 1171.8 ± 1 m/s | 874.31 ± 2 kg/m3 | 1151.1 ± 1 m/s | 868.85 ± 2 kg/m3 | 1130.2 ± 1 m/s | 863.4 ± 2 kg/m3 | 1109 ± 1 m/s | 857.94 ± 2 kg/m3 | speed of sound ([2]; 318.15 K): 1088 ± 1 m/s; mass density ([2]; 318.15 K): 852.49 ± 2 kg/m3; speed of sound ([2]; 323.15 K): 1067.1 ± 1 m/s; mass density ([2]; 323.15 K): 847.03 ± 2 kg/m3
7 | CCCC(=O)OCC [ethyl butanoate] + CC(O)CCO |  |  |  |  |  |  |  |  |  |  |  |  | 1171.8 ± 1 m/s | 874.31 ± 2 kg/m3 | 1151.1 ± 1 m/s | 868.85 ± 2 kg/m3 | 1130.2 ± 1 m/s | 863.4 ± 2 kg/m3 | 1109 ± 1 m/s | 857.94 ± 2 kg/m3 | speed of sound ([2]; 318.15 K): 1088 ± 1 m/s; mass density ([2]; 318.15 K): 852.49 ± 2 kg/m3; speed of sound ([2]; 323.15 K): 1067.1 ± 1 m/s; mass density ([2]; 323.15 K): 847.03 ± 2 kg/m3
